{"source": "patent US20200385396A1", "about": "“Compond for treatment or prevention of obesity or diseases related to obesity, and application thereof” (SHANGHAI INSTITUTES FOR BIOLOGICAL SCIENCES, CHINESE …, priority 2017, published 2020)", "type_in_all_cases": "in vivo, mouse", "key": {"mice": {"test_system": "mice", "assay": "Water consumption of mice", "details": "20 mg/kg injection, three consecutive days", "experimental": "Since OB/OB mice are a diabetic mouse model, they have the characteristics of polyphagia, polydipsia, and polyuria. […] Again whether HLY72 had the effect of reducing drinking water in mice was tested. […] For the mice of high-fat diet (HFD), the three-day water consumption is only 26.38%±2.06% of the control group (FIG. 9). Therefore, HLY72, like NUCB2/Nesfatin-1, has the effect of reducing water consumption in mice."}, "high-fat diet obese mice": {"test_system": "high-fat diet obese mice", "assay": "Fat and muscle content (magnetic resonance) of high-fat diet obese mice", "experimental": "(§1) Mice were intraperitoneally injected with DMSO or HLY72 (dissolved in DMSO) 25 μL within 2 hours before turning off the lamp. During the intragastric experiment, the high concentration of HLY72 dissolved in DMSO was dissolved in 10% cyclodextrin, and the total volume was 100 μL Volume by gavage, so that the final concentration of DMSO was less than 10%. The diet was weighed at the 3rd hour, the 6th hour, the 12th hour, and the 24th hour respectively after the lights out. The corresponding mouse body weight was also weighed at the same time before the daily administration. The fat content of mice was measured with the magnetic resonance fat content measuring instrument of the animal platform in SIBCB.\nIn the experiment, high-fat diets were used to feed obese mice weighing about 40 grams for 22 weeks, according to the way used in the previous 3 courses."}, "[1]": {"test_system": "high-fat-induced obese mice", "assay": "Weight loss in high-fat-induced obese mice, periodic intermittent administration", "details": "20 mg/kg", "text": "All animal experiments were approved by the Animal Management Committee of SIBCB. C57BL/6 mice were purchased from Lingchang company (normal mice and high-fat diet-induced obese mice), C57/BLJ6 (NUCB2 gene knockout mice for breeding and background purification) were purchased from Lingchang company, OB/OB mice were purchased from Slack company. A high-fat diet (45% kcal, D12451) for inducing obese mice was purchased from Research Diets. Starting from the sixth week, it was fed with high-fat diet for 14-25 weeks. The rest of the mice used normal diet (13.5% kcal). The mice were housed in the SPF grade animal house of SIBCB. The lights were turned off for 12 hours (19: 00-07: 00), and the lights were turned on for 12 hours (07: 00-19: 00).\nas §1\nAccording to the previous results, it is considered that HLY72 should not be used continuously for a long time. In view of the fact that many mechanisms of NUCB2 functioning are still unclear, the simplest intermittent drug administration method was selected, that is, the drug was administered for 3 days, stopped for 4 days, one dosing cycle per week, and repeated for 3 courses (FIG. 10a).\nIn the high-fat-induced obese mouse model, three days after the first injection of HLY72, the body weight of the mice is decreased from 33.56±0.63 g to 31.61±0.74 g, and three days after the second administration, the body weight of mice is decreased from 31.23±0.57 g to 29.36±0.58 g, three days after the third administration, the body weight of mice is decreased from 29.39±0.51 g to 27.80±0.62 g, at the end of 21 days after 3 cycles, the overall weight of the mice is decreased from 33.56±0.63 g to 27.65±0.54 g (FIG. 10b). The whole process corresponds to 16.88%±0.51% of the total weight loss (FIG. 10c)."}}}
{"smiles": "C=Cc1cccc2c1N(C)Cc1cc3c(cc1-2)OCO3", "note": "[HLY72]", "values": [{"measurement": "three-day water consumption of treated mice, percent of control group", "setting": "mice; high-fat diet (HFD) mice", "result": "26.38%±2.06%"}, {"measurement": "three-day water consumption of treated mice, percent of control group", "setting": "mice; normal chow diet (NCD) mice", "result": "39.68%±2.29%"}, {"measurement": "weight of mice", "setting": "high-fat diet obese mice; obese mice about 40 g, high-fat diet 22 weeks, 20 mg/kg courses of injection", "result": "significantly reduce"}, {"measurement": "increase of the proportion of muscle", "setting": "high-fat diet obese mice; obese mice, 20 mg/kg courses", "result": "about 9 percentage points"}, {"measurement": "fat content", "setting": "high-fat diet obese mice; obese mice, MRI fat content measuring instrument, 20 mg/kg courses", "result": "significantly reduced"}, {"measurement": "average daily food intake in the three administration periods compared with the DMSO group", "setting": "[1]", "result": "significant decrease"}, {"measurement": "overall weight at the end of 21 days after 3 cycles", "setting": "[1]; 3 cycles", "result": "27.65 ± 0.54", "unit": "g"}, {"measurement": "body weight before the first administration", "setting": "[1]; 3 days on / 4 days off, start", "result": "33.56 ± 0.63", "unit": "g"}, {"measurement": "body weight three days after the first injection", "setting": "[1]; course 1", "result": "31.61 ± 0.74", "unit": "g"}, {"measurement": "body weight before the second administration", "setting": "[1]; course 2", "result": "31.23 ± 0.57", "unit": "g"}, {"measurement": "body weight three days after the second administration", "setting": "[1]; course 2", "result": "29.36 ± 0.58", "unit": "g"}, {"measurement": "body weight before the third administration", "setting": "[1]; course 3", "result": "29.39 ± 0.51", "unit": "g"}, {"measurement": "body weight three days after the third administration", "setting": "[1]; course 3", "result": "27.80 ± 0.62", "unit": "g"}, {"measurement": "total weight loss", "setting": "[1]; whole process, 21 days, 3 cycles", "result": "16.88%±0.51%"}]}
